3 molecules from US20240264161A1, “BIOMARKERS AND USES THEREOF” (MetaCurUm Biotech AB, priority 2021, published 2024) can be followed below.

In series [1] the test system is TβRI. The experiment in a line: Immunoblotting of AURKB phosphorylation after TβRI kinase inhibition. The following applies: PC-3U cells treated or not with SB505124 and TGFβ for 30 minutes. The series is classed as cell-based, human. The method, then: (A, B and D) Immunofluorescence experiments showing co-localization of AURKB (green) and TβRI (V22, red) during mitosis in human prostate cancer (PC-3U) (A) and human neuroblastoma (KELLY) (B) cells, and of TβRI (V22, green) and β-tubulin (red) throughout the PC-3U mitosis (D). Scale bar, 20 μm. (C) Localization of survivin (green) and TβRI (V22, red) in PC-3U cells throughout the mitosis (E) Decreased co-localization of TβRI and AURKB after treatment of PC-3U cells on ice for 30 min. Scale bar, 20 μm. (F) Representative confocal images showing the localization of green fluorescent protein (GFP)-VPS4A (green) and β-tubulin (red) with or without knockdown of TβRI by siRNA, or treatment with the TβRI kinase inhibitor SB505124. Scale bar, 5 μm. (G) Multinucleated cells were counted after knockdown of TGFBR1. Data presented as mean±SEM, N=3 [Student's t-test, *P<0.05]. Scale bar, 20 μm. […] (J) PC-3U cells were treated or not with SB505124 and TGFβ for 30 minutes, after which cell lysates were analyzed by immunoblotting. […]
Cells were washed twice with ice-cold phosphate-buffered saline (PBS) and lysed in ice-cold lysis buffer [150 mM NaCl, 50 mM Tris, pH 8.0, 0.5% (v/v) deoxycholate, 1% (v/v) NP40, 10% (v/v) glycerol and protease inhibitors]. After centrifugation, the supernatants were collected, and protein concentrations determined using the BCA Protein Assay Kit (ThermoFisher Scientific). […]
In general terms: Immunoblotting shows a protein as a band on a membrane.

Series [2] has as its system PC-3U cells. Put plainly: Confocal imaging of abscission (GFP-VPS4A and β-tubulin). Format: cell-based, human. The method, then:
(A, B and D) Immunofluorescence experiments showing co-localization of AURKB (green) and TβRI (V22, red) during mitosis in human prostate cancer (PC-3U) (A) and human neuroblastoma (KELLY) (B) cells, and of TβRI (V22, green) and β-tubulin (red) throughout the PC-3U mitosis (D). Scale bar, 20 μm. (C) Localization of survivin (green) and TβRI (V22, red) in PC-3U cells throughout the mitosis (E) Decreased co-localization of TβRI and AURKB after treatment of PC-3U cells on ice for 30 min. Scale bar, 20 μm. (F) Representative confocal images showing the localization of green fluorescent protein (GFP)-VPS4A (green) and β-tubulin (red) with or without knockdown of TβRI by siRNA, or treatment with the TβRI kinase inhibitor SB505124. Scale bar, 5 μm. (G) Multinucleated cells were counted after knockdown of TGFBR1. Data presented as mean±SEM, N=3 [Student's t-test, *P<0.05]. Scale bar, 20 μm. […] The gene sets are ordered by normalized enrichment score. Color indicates the adjusted p-value. (I) GSEA plots of the hallmark mitotic spindle (left) and G2/M checkpoint (right) gene sets show their strong association with TGFBR1-correlated genes. […] (J) PC-3U cells were treated or not with SB505124 and TGFβ for 30 minutes, after which cell lysates were analyzed by immunoblotting. […]

The target of series [3] is T1, glutathione-S-transferase (GST)-TβRI, P36897.
T1 chain: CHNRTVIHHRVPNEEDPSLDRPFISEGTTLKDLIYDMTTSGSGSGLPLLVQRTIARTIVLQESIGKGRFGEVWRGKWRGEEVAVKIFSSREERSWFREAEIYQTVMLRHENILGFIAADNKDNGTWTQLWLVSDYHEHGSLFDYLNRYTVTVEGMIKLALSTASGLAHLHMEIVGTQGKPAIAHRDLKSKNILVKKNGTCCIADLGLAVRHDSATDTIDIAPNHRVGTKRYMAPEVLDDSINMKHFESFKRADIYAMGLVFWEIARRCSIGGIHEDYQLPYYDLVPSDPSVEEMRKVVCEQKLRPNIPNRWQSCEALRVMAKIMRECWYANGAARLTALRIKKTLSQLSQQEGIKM

The target of series [4] is T2, Flag-tagged wild-type AURKB.
T2 chain: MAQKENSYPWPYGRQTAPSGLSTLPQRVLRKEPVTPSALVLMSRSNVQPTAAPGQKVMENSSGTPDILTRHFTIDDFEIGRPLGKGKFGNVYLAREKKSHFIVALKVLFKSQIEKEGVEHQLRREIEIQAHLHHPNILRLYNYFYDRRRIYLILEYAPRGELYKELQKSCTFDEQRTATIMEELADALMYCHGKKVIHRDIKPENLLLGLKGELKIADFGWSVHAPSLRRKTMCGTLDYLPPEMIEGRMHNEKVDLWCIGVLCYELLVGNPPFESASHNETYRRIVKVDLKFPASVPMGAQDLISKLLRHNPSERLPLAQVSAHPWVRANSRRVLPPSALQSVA

`Cc1cccc(-c2[nH]c(C(C)(C)C)nc2-c2ccc3c(c2)OCO3)n1` [SB505124]: the AURKB phosphorylation result in series [1] is “suppressed AURKB phosphorylation”. Moreover, the effect on abscission result in series [2] is “did not affect the abscission”.

B1: His-AURKB (protein)
chain: MAQKENSYPWPYGRQTAPSGLSTLPQRVLRKEPVTPSALVLMSRSNVQPTAAPGQKVMENSSGTPDILTRHFTIDDFEIGRPLGKGKFGNVYLAREKKSHFIVALKVLFKSQIEKEGVEHQLRREIEIQAHLHHPNILRLYNYFYDRRRIYLILEYAPRGELYKELQKSCTFDEQRTATIMEELADALMYCHGKKVIHRDIKPENLLLGLKGELKIADFGWSVHAPSLRRKTMCGTLDYLPPEMIEGRMHNEKVDLWCIGVLCYELLVGNPPFESASHNETYRRIVKVDLKFPASVPMGAQDLISKLLRHNPSERLPLAQVSAHPWVRANSRRVLPPSALQSVA
As for B1, the “in vitro kinase assay (phosphorylation of GST-TβRI)” value in series [3] is on record as “His-AURKB phosphorylated glutathione-S-transferase (GST)-TβRI in an in vitro kinase assay”.

B2: TNF receptor associated factor 6 (TRAF6), endogenous in PC-3U cells (protein)
chain: MSLLNCENSCGSSQSESDCCVAMASSCSAVTKDDSVGGTASTGNLSSSFMEEIQGYDVEFDPPLESKYECPICLMALREAVQTPCGHRFCKACIIKSIRDAGHKCPVDNEILLENQLFPDNFAKREILSLMVKCPNEGCLHKMELRHLEDHQAHCEFALMDCPQCQRPFQKFHINIHILKDCPRRQVSCDNCAASMAFEDKEIHDQNCPLANVICEYCNTILIREQMPNHYDLDCPTAPIPCTFSTFGCHEKMQRNHLARHLQENTQSHMRMLAQAVHSLSVIPDSGYISEVRNFQETIHQLEGRLVRQDHQIRELTAKMETQSMYVSELKRTIRTLEDKVAEIEAQQCNGIYIWKIGNFGMHLKCQEEEKPVVIHSPGFYTGKPGYKLCMRLHLQLPTAQRCANYISLFVHTMQGEYDSHLPWPFQGTIRLTILDQSEAPVRQNHEEIMDAKPELLAFQRPTIPRNPKGFGYVTFMHLEALRQRTFIKDDTLLVRCEVSTRFDMGSLRREGFQPRSTDAGV
With B2, the “polyubiquitination of AURKB (Flag IP, HA-ubiquitin immunoblot, with or without TRAF6 siRNA)” value in series [4] is given as “Knockdown of TRAF6 by siRNA in PC-3U cells suppressed polyubiquitination of AURKB”.
